Data as given in patent EP4740948A1 (Dong Wha Pharm. Co., Ltd., priority 2023, dated 2025).
Structures can show the parent of a compound that is named as a salt.

Columns and labels:
Lovo cells = test: Cancer cell proliferation inhibition (Cell Counting Kit-8), colorectal cancer cell line; format: cell-based; conditions: 1000 nM, cultured seven to 11 days; for inhibition at 1 µM: Homo sapiens, LoVo, 264 h, read-out: % inhibition rate LoVo
How it was run: (§1)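 After plating 100 to 1,000 cells per well in medium with 10% fetal bovine serum, each line receives 1000 nM compound and is cultured for seven to 11 days. Growth inhibition is derived from CCK-8 signal compared with control cultures.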

EZH1 = EZH1 (Homo sapiens, UniProt Q92800); test: AlphaLISA enzyme activity inhibition, EZH1; format: biochemical; conditions: for inhibition at 0.005 µM: 5nM test substance
How it was run: (§2)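 Enzyme inhibition rate was calculated relative to DMSO from AlphaLISA signal, with acceptor beads added after a 2 h methylation reaction and donor beads 1 h later. Each enzyme, EZH1 or EZH2, was pre-mixed with compound (final 5 nM or 10 nM) in Tris buffer pH 8.0 before histone H3 peptide and SAM initiated the reaction.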

MKN-45 cells = test: Cancer cell proliferation inhibition (Cell Counting Kit-8), gastric cancer cell line; format: cell-based; conditions: 1000 nM, cultured seven to 11 days; for inhibition at 1 µM: Homo sapiens, MKN-45, 264 h, read-out: % inhibition rate MKN -45; for % inhibition rate MKN -45: 1 µM
How it was run: (§3)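 Single 1000 nM dose of test substance, applied to cells seeded at 100–1,000 per well in 10% FBS medium, then culture for seven to 11 days. CCK-8 read-out; inhibition rate expressed as percent relative to untreated control.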

MIA-PaCa-2 cells = test: Cancer cell proliferation inhibition (Cell Counting Kit-8), pancreatic cancer cell line; format: cell-based; conditions: 1000 nM, cultured seven to 11 days; for inhibition at 1 µM: Homo sapiens, MIA PaCa-2, 264 h, read-out: % inhibition rate MIA-Paca2; for % inhibition rate MIA-Paca2: 1 µM
How it was run: as §1

G401 cells = test: Cancer cell proliferation inhibition (Cell Counting Kit-8), rhabdoid tumor cell line; format: cell-based; conditions: 1000 nM, cultured seven to 11 days; for inhibition at 1 µM: Homo sapiens, G-401, 264 h, read-out: % inhibition rate G401
How it was run: as §3

NCI-H1299 cells = test: Cancer cell proliferation inhibition (Cell Counting Kit-8), lung cancer cell line; format: cell-based; conditions: 1000 nM, cultured seven to 11 days; for inhibition at 1 µM: Homo sapiens, NCI-H1299, 264 h, read-out: % inhibition rate NCI-H129 9
How it was run: as §1

SW-13 cells = test: Cancer cell proliferation inhibition (Cell Counting Kit-8), adrenal cancer cell line; format: cell-based; conditions: 1000 nM, cultured seven to 11 days; for inhibition at 1 µM: Homo sapiens, SW13, 264 h, read-out: % inhibition rate SW-13; for % inhibition rate SW-13: 1 µM
How it was run: as §1

EZH2 = EZH2 (Homo sapiens, UniProt Q15910); test: AlphaLISA enzyme activity inhibition, EZH2; format: biochemical
How it was run: as §2

Sequence of EZH1 (Q92800 whole entry, species assumed): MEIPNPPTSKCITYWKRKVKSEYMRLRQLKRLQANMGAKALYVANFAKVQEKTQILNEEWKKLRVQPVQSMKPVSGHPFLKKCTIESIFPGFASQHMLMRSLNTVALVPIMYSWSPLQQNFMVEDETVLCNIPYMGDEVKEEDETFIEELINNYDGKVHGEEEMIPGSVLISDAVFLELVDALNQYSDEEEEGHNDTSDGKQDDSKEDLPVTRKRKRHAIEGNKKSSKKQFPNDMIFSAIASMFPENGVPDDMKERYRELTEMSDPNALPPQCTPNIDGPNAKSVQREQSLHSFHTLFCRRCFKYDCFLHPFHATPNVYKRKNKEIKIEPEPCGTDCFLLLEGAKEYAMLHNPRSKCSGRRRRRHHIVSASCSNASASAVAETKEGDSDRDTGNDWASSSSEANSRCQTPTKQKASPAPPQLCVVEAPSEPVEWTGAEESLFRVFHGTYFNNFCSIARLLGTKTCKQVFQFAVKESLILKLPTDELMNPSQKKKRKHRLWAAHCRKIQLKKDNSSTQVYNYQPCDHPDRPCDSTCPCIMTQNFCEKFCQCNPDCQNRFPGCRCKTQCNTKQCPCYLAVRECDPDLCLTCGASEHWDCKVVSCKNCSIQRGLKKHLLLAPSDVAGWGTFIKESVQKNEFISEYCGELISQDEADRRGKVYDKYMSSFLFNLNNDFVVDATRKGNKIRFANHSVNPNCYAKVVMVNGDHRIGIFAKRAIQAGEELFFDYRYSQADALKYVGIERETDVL
Sequence of EZH1 (O75530 whole entry partner, species assumed): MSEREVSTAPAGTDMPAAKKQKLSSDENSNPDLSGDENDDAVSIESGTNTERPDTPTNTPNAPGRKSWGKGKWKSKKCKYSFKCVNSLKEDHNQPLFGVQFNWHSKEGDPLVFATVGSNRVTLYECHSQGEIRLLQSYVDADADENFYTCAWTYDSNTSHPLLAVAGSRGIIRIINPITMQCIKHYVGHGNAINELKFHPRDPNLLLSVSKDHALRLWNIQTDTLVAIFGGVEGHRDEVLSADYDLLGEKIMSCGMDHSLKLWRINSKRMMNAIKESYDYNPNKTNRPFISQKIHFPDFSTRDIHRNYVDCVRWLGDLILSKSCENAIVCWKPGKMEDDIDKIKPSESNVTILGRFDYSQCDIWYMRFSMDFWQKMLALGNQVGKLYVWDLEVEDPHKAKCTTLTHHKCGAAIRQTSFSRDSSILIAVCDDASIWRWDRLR
Sequence of EZH1 (Q15022 whole entry partner, species assumed): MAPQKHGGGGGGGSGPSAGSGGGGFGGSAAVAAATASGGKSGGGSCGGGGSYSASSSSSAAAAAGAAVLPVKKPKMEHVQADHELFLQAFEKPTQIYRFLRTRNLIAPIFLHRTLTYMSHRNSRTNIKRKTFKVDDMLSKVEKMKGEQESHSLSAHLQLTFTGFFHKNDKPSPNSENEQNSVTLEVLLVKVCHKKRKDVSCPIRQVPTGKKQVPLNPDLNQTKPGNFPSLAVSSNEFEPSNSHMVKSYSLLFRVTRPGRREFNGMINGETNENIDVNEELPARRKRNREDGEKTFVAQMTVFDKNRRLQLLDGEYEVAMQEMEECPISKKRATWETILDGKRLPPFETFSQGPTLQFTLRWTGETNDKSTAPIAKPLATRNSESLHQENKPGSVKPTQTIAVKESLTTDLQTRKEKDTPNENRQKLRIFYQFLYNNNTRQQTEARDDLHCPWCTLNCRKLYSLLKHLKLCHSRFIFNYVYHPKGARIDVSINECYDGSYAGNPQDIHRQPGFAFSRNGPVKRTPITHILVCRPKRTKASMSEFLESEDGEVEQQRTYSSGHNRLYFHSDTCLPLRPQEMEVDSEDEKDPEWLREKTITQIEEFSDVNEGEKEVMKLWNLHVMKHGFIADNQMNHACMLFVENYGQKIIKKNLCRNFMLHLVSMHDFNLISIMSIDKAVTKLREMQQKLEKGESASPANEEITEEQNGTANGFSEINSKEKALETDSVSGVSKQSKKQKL
Sequence of EZH2 (Q15910 whole entry, species assumed): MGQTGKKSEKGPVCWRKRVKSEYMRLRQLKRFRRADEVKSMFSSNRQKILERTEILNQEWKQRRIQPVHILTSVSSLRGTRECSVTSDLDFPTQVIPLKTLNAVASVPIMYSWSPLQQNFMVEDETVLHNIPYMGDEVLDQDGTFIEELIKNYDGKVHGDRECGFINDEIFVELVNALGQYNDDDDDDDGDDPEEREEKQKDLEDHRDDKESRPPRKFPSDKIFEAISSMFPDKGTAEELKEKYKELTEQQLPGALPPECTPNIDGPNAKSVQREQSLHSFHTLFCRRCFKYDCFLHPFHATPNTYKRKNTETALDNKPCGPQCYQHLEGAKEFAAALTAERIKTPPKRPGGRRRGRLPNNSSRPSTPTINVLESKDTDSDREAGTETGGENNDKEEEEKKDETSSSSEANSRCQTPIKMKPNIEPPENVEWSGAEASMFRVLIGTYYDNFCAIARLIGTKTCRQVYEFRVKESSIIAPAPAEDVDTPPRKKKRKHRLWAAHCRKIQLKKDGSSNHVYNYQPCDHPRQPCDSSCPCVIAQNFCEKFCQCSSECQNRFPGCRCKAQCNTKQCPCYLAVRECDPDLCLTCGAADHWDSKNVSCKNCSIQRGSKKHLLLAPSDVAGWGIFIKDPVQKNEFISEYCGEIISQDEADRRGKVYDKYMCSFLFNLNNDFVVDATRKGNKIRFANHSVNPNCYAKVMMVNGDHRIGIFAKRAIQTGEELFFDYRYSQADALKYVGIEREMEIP
Sequence of EZH2 (O75530 whole entry partner, species assumed): as the sequence (O75530 whole entry partner, species assumed) above
Sequence of EZH2 (Q15022 whole entry partner, species assumed): as the sequence (Q15022 whole entry partner, species assumed) above

| SMILES | inhibition at 1 µM (Lovo cells) [%] | inhibition at 0.005 µM (EZH1) [%] | inhibition at 0.01 µM (EZH1; 10nM test substance) [%] | inhibition at 1 µM (MKN-45 cells) [%] | inhibition at 1 µM (MIA-PaCa-2 cells) [%] | inhibition at 1 µM (G401 cells) [%] | inhibition at 1 µM (NCI-H1299 cells) [%] | inhibition at 1 µM (SW-13 cells) [%] | inhibition at 0.005 µM (EZH2; 5nM test substance) [%] | inhibition at 0.01 µM (EZH2; 10nM test substance) [%] | % inhibition rate MKN -45 (MKN-45 cells) | % inhibition rate MIA-Paca2 (MIA-PaCa-2 cells) | % inhibition rate SW-13 (SW-13 cells) | % inhibition rate LoVo (Lovo cells) | Enzyme inhibition % EZH1 (EZH1; 10nM test substance, 0.01 µM) [%] | % inhibition rate G401 (G401 cells) | % inhibition rate NCI-H129 9 (NCI-H1299 cells) | Enzyme inhibition % EZH2 (EZH2; 5nM test substance, 0.005 µM) [%] | Enzyme inhibition % EZH2 (EZH2; 10nM test substance, 0.01 µM) [%] |
| --- | --- | --- | --- | --- | --- | --- | --- | --- | --- | --- | --- | --- | --- | --- | --- | --- | --- | --- | --- |
| CSc1cc(C)[nH]c(=O)c1CNC(=O)c1cc(-c2ccc3occc3c2)c2c(c1C)OC(C)(C1CCN(CC(F)(F)F)CC1)O2 (stereo not shown) [Compound 96, 7-(benzofuran-5-yl)-2,4-dimethyl-N-((6-methyl-4-(methylthio)-2-oxo-1,2-dihydropyridin-3-yl)methyl)-2-(1-(2,2,2-trifluoroethyl)piperidin-4-yl)benzo[d][1,3]dioxole-5-carboxamide] | ≥ 70 | 19.2 | 14.8 | ≤ 30 | ≤ 30 | ≤ 30 | ≤ 30 | ≤ 30 | 58.4 | 78 |  |  |  |  |  |  |  |  |  |
| CSc1cc(C)[nH]c(=O)c1CNC(=O)c1cc(-c2ccc3occc3c2)c2c(c1C)OC(C)(C1CCN(CC(F)F)CC1)O2 (stereo not shown) [Compound 97, 7-(benzofuran-5-yl)-2-(1-(2,2-difluoroethyl)piperidin-4-yl)-2,4-dimethyl-N-((6-methyl-4-(methylthio)-2-oxo-1,2-dihydropyridin-3-yl)methyl)benzo[d][1,3]dioxole-5-carboxamide] | ≥ 70 | 25.9 | 20.5 | 30 to 70 | ≤ 30 | 30 to 70 | ≤ 30 | ≤ 30 | 74.7 | 82.3 |  |  |  |  |  |  |  |  |  |
| CCCCN(C)c1ccc(-c2cc(C(=O)NCc3c(SC)cc(C)[nH]c3=O)c(C)c3c2OC(C)(C2CCN(CC(F)(F)F)CC2)O3)cn1 (stereo not shown) [Compound 98, 7-(6-(butyl(methyl)amino)pyridin-3-yl)-2,4-dimethyl-N-((6-methyl-4-(methylthio)-2-oxo-1,2-dihydropyridin-3-yl)methyl)-2-(1-(2,2,2-trifluoroethyl)piperidin-4-yl)benzo[d][1,3]dioxole-5-carboxamide] | ≥ 70 | 30.9 | 17.6 | 30 to 70 | ≤ 30 | 30 to 70 | ≤ 30 | ≤ 30 | 52.2 | 48.9 |  |  |  |  |  |  |  |  |  |
| CCCCN(C)c1ncc(-c2cc(C(=O)NCc3c(SC)cc(C)[nH]c3=O)c(C)c3c2OC(C)(C2CCN(CC(F)(F)F)CC2)O3)cn1 (stereo not shown) [Compound 99] | ≥ 70 | 37.1 | 42.9 | 30 to 70 | ≤ 30 | 30 to 70 | ≤ 30 | 30 to 70 | 62.4 | 76.5 |  |  |  |  |  |  |  |  |  |
| CSc1cc(C)[nH]c(=O)c1CNC(=O)c1cc(-c2ccc(N3C[C@@H](C)O[C@@H](C)C3)nc2)c2c(c1C)OC(C)([C@H]1CC[C@H](N)CC1)O2 (stereo partly drawn) [Compound 100, 2-(trans-4-aminocyclohexyl)-7-(6-((2S,6R)-2,6-dimethylmorpholino)pyridin-3-yl)-2,4-dimethyl-N-((6-methyl-4-(methylthio)-2-oxo-1,2-dihydropyridin-3-yl)methyl)benzo[d][1,3]dioxole-5-carboxamide hydrochloride] | ≤ 30 | 30 | 68.1 | 30 to 70 | ≤ 30 | ≥ 70 | ≤ 30 | 30 to 70 | 96.3 | 100 |  |  |  |  |  |  |  |  |  |
| CSc1cc(C)[nH]c(=O)c1CNC(=O)c1cc(-c2ccc(N3C[C@@H](C)O[C@@H](C)C3)nc2)c2c(c1C)OC(C)([C@H]1CC[C@H](N3CC(O)C3)CC1)O2 (stereo partly drawn) [Compound 101, 7-(6-((2S,6R)-2,6-dimethylmorpholino)pyridin-3-yl)-2-(trans-4-(3-hydroxyazetidin-1-yl)cyclohexyl)-2,4-dimethyl-N-((6-methyl-4-(methylthio)-2-oxo-1,2-dihydropyridin-3-yl)methyl)benzo[d][1,3]dioxole-5-carboxamide] | 30 to 70 | 38.8 | 78.1 | ≤ 30 | ≤ 30 | ≥ 70 | ≤ 30 | 30 to 70 | 98.7 | 100 |  |  |  |  |  |  |  |  |  |
| CSc1cc(C)[nH]c(=O)c1CNC(=O)c1cc(-c2ccc(N3C[C@@H](C)O[C@@H](C)C3)nc2)c2c(c1C)OC(C)([C@H]1CC[C@H](N3CC(OCC(F)F)C3)CC1)O2 (stereo partly drawn) [Compound 103, 2-(trans-4-(3-(2,2-difluoroethoxy)azetidin-1-yl)cyclohexyl)-7-(6-((2S,6R)-2,6-dimethylmorpholino)pyridin-3-yl)-2,4-dimethyl-N-((6-methyl-4-(methylthio)-2-oxo-1,2-dihydropyridin-3-yl)methyl)benzo[d][1,3]dioxole-5-carboxamide] | ≥ 70 | 10.7 | 20.5 |  |  | ≥ 70 | ≤ 30 |  | 27.1 | 72.5 | +++ (+++: ≥70%) | +++ (+++: ≥70%) | +++ (+++: ≥70%) |  |  |  |  |  |  |
| CSc1cc(C)[nH]c(=O)c1CNC(=O)c1cc(-c2ccc(N3C[C@@H](C)O[C@@H](C)C3)nc2)c2c(c1C)OC(C)([C@H]1CC[C@H](N3CC(OCC(F)F)C3)CC1)O2 (stereo partly drawn) [Compound 104, 2-(trans-4-(3-(2,2-difluoroethoxy)azetidin-1-yl)cyclohexyl)-7-(6-((2S,6R)-2,6-dimethylmorpholino)pyridin-3-yl)-2,4-dimethyl-N-((6-methyl-4-(methylthio)-2-oxo-1,2-dihydropyridin-3-yl)methyl)benzo[d][1,3]dioxole-5-carboxamide] |  |  |  |  |  |  |  |  |  |  | ++ (++: more than 30% and less than 70%) | + (+: ≤30%) | ++ (++: more than 30% and less than 70%) | +++ (+++: ≥70%) | 19.9 | +++ (+++: ≥70%) | + (+: ≤30%) | 37.0 | 82.6 |
| COC1CN([C@H]2CC[C@H](C3(C)Oc4c(-c5ccc(N6C[C@@H](C)O[C@@H](C)C6)nc5)cc(C(=O)NCc5c(SC)cc(C)[nH]c5=O)c(C)c4O3)CC2)C1 (stereo partly drawn) [Compound 106, 7-(6-((2S,6R)-2,6-dimethylmorpholino)pyridin-3-yl)-2-(trans-4-(3-methoxyazetidin-1-yl)cyclohexyl)-2,4-dimethyl-N-((6-methyl-4-(methylthio)-2-oxo-1,2-dihydropyridin-3-yl)methyl)benzo[d][1,3]dioxole-5-carboxamide] | ≥ 70 | 34.2 | 69.1 | ≤ 30 | ≤ 30 | ≥ 70 | 30 to 70 | 30 to 70 | 90.6 | 99.9 |  |  |  |  |  |  |  |  |  |
| CSc1cc(C)[nH]c(=O)c1CNC(=O)c1cc(-c2ccc(N3C[C@@H](C)O[C@@H](C)C3)nc2)c2c(c1C)OC(C)([C@H]1CC[C@H](N(C)CC(F)F)CC1)O2 (stereo partly shown) [Compound 109] | ≥ 70 | 22 | 35.2 | 30 to 70 | ≤ 30 | ≥ 70 | ≤ 30 | 30 to 70 | 52.4 | 91.6 |  |  |  |  |  |  |  |  |  |
| CSc1cc(C)[nH]c(=O)c1CNC(=O)c1cc(-c2ccc(N3C[C@@H](C)O[C@@H](C)C3)nc2)c2c(c1C)OC(C)([C@H]1CC[C@H](N(C)C(C)C)CC1)O2 (stereo partly drawn) [Compound 110, 7-(6-((2S,6R)-2,6-dimethylmorpholino)pyridin-3-yl)-2-(trans-4-(isopropyl(methyl)amino)cyclohexyl)-2,4-dimethyl-N-((6-methyl-4-(methylthio)-2-oxo-1,2-dihydropyridin-3-yl)methyl)benzo[d][1,3]dioxole-5-carboxamide] | ≥ 70 | 52 | 91.9 | ≤ 30 | ≤ 30 | ≥ 70 | ≤ 30 | 30 to 70 | 99.8 | 100 |  |  |  |  |  |  |  |  |  |
